Results from ChEMBL document CHEMBL4673405, “Novel Linker Variants of Antileishmanial/Antitubercular 7-Substituted 2-Nitroimidazooxazines Offer Enhanced Solubility” (ACS Med Chem Lett, 2021).
In brackets after ≈: the same amount, converted by molar mass.

Columns and labels:
Leishmania infantum = experiment: Antileishmanial activity against Leishmania infantum MHOM/MA(BE)/67 amastigotes infected in mouse peritoneal macrophages incubated for 5 days by Giemsa staining based assay; type: functional, organism-based; conditions: MHOM/MA(BE)/67, Peritoneal macrophage, 120 h
MRC5 = experiment: Cytotoxicity against human MRC5 cells assessed as reduction in cell viability measured after 72 hrs by resazurin assay; type: ADME, cell-based; conditions: MRC5, 72 h
[1] = Solubility of the compound in 0.1 M HCl at pH 1 sonicated for 15 mins by HPLC analysis; type: physicochemical
[2] = Aqueous solubility of the compound at pH 7 sonicated for 15 mins by HPLC analysis; conditions: aqueous medium
Leishmania donovani [3] = experiment: (§1) Antileishmanial activity against Leishmania donovani MHOM/ET/67/HU3 amastigotes infected in BALB/c mouse model of visceral leishmaniasis assessed as reduction in parasite burden in liver at 25 mg/kg, po administered once daily for 5 consecutive days starting after 7 days post-infection by microscopic analysis relative to control; type: functional; design: scale not given: the % may be the effect or the level left; conditions: time 5 day
Leishmania donovani [4] = experiment: as §1, with “12.5” for “25”; type: functional; design: scale not given: the % may be the effect or the level left; conditions: time 5 day
Leishmania donovani [5] = experiment: as §1, with “50” for “25”; type: functional; design: scale not given: the % may be the effect or the level left; conditions: time 5 day
[6] = Microsomal stability in mouse liver microsomes assessed as parent compound remaining at 1 uM measured up to 60 mins in presence of NADPH by LC-MS/MS analysis
[7] = Microsomal stability in human liver microsomes assessed as parent compound remaining at 1 uM measured up to 60 mins in presence of NADPH by LC-MS/MS analysis
Leishmania donovani [8] = experiment: as §1, with “spleen” for “liver”; type: functional; design: scale not given: the % may be the effect or the level left; conditions: time 5 day
[9] = Clearance in BALB/c mouse at 1 mg/kg, iv measured up to 24 hrs by LC-MS/MS analysis; conditions: in vivo
in vivo [10] = conditions: BALB/c, mouse, po, 25 mg/kg
in vivo [11] = conditions: BALB/c, mouse, po, 25 mg/kg; remark: listed apart in the source
[12] = Volume of distribution at steady state in BALB/c mouse at 1 mg/kg, iv measured up to 24 hrs by LC-MS/MS analysis; conditions: in vivo
Leishmania donovani [13] = experiment: as §1, with “spleen” for “liver”, “50” for “25”; type: functional; design: scale not given: the % may be the effect or the level left; conditions: time 5 day
in vivo [14] = conditions: BALB/c, mouse, po, 25 mg/kg; remark: listed apart in the source
Description: AUClast in BALB/c mouse at 25 mg/kg, po measured up to 24 hrs by LC-MS/MS analysis

[15] = AUClast in BALB/c mouse at 1 mg/kg, iv measured up to 24 hrs by LC-MS/MS analysis; conditions: in vivo
[16] = Half life in BALB/c mouse at 1 mg/kg, iv measured up to 24 hrs by LC-MS/MS analysis; conditions: in vivo
Leishmania donovani [17] = experiment: Antileishmanial activity against Leishmania donovani MHOM/ET/67/HU3 amastigotes infected in po dosed BALB/c mouse model of visceral leishmaniasis assessed as reduction in parasite burden in liver at administered once daily for 5 consecutive days starting after 7 days post-infection by microscopic analysis; type: functional; conditions: MHOM/ET/67/HU3, po, 120 h, time 5 day
in vivo [18] = conditions: BALB/c, mouse, po, 25 mg/kg; remark: listed apart in the source
[19] = Half life in BALB/c mouse at 25 mg/kg, po measured up to 24 hrs by LC-MS/MS analysis; type: ADME, organism-based; conditions: in vivo
[20] = Initial plasma concentration in BALB/c mouse at 1 mg/kg, iv measured up to 24 hrs by LC-MS/MS analysis

Row | SMILES | IC50 (Leishmania infantum) [nM] | IC50 (MRC5) [nM] | solubility at 0.25 h [2] [µg/mL] | also measured
1 | CC1(CNC(=O)NCc2ccc(OC(F)(F)F)cc2)CCn2cc([N+](=O)[O-])nc2O1 (stereo unspecified) | 1800 | ≥ 40000 | – | –
2 | CC1(COCc2ccc(OC(F)(F)F)cc2)CCn2cc([N+](=O)[O-])nc2O1 (stereo unspecified) | 300 | ≥ 40000 | – | –
3 | CC1(CNCc2ccc(OC(F)(F)F)cc2)CCn2cc([N+](=O)[O-])nc2O1 (stereo unspecified) | 130 | ≥ 40000 | 124 (≈ 321 µM) | solubility at 0.25 h [1]: 33000 µg/mL (≈ 85400 µM)
4 | CC1(COc2ccc(OC(F)(F)F)cc2)CCn2cc([N+](=O)[O-])nc2O1 (stereo unspecified) | – | – | – | Activity (Leishmania donovani [3]): 100%; Activity (Leishmania donovani [4]): 100%
5 | O=C(NCC1CCn2cc([N+](=O)[O-])nc2O1)Nc1ccc(OC(F)(F)F)cc1 (stereo unspecified) | 3300 | ≥ 40000 | – | –
6 | CC1(CNC(=O)Nc2ccc(OC(F)(F)F)cc2)CCn2cc([N+](=O)[O-])nc2O1 (stereo unspecified) | 1400 | ≥ 40000 | 121 (≈ 291 µM) | Activity (Leishmania donovani [5]): 36%; remaining at 1 h, 1 µM [6]: 39%; remaining at 1 h, 1 µM [7]: 54%
7 | CC1(COC(=O)Nc2ccc(OC(F)(F)F)cc2)CCn2cc([N+](=O)[O-])nc2O1 (stereo unspecified) | 360 | ≥ 40000 | 11 (≈ 26.4 µM) | Activity (Leishmania donovani [5]): >99%; Activity (Leishmania donovani [8]): 96%; clearance at 24 h [9]: 8.5 mL/min/kg; Activity (Leishmania donovani [3]): 97%; bioavailability at 24 h (in vivo [10]): 100%; Cmax at 24 h (in vivo [11]): 13500 ng/mL; Activity (Leishmania donovani [4]): 7%; Vd at 24 h [12]: 1.2 L/kg; Activity (Leishmania donovani [13]): 100%; AUC(0-t) at 24 h (in vivo [14]): 57800 ng·h/mL; AUC(0-t) at 24 h [15]: 2070 ng·h/mL; half-life at 24 h [16]: 1.3 h; ED50 (Leishmania donovani [17]): 16 mg/kg; Tmax at 24 h (in vivo [18]): 0.75 h; half-life [19]: 1.7 h; C0 at 24 h [20]: 800 ng/mL
8 | CC1(CNC(=O)OCc2ccc(OC(F)(F)F)cc2)CCn2cc([N+](=O)[O-])nc2O1 (stereo unspecified) | 160 | ≥ 40000 | 28 (≈ 65.1 µM) | –
9 | CC1(CNC(=O)c2ccc(OC(F)(F)F)cc2)CCn2cc([N+](=O)[O-])nc2O1 (stereo unspecified) | 1400 | ≥ 40000 | 78 (≈ 195 µM) | Activity (Leishmania donovani [5]): 71%
10 | CC1(CNS(=O)(=O)c2ccc(OC(F)(F)F)cc2)CCn2cc([N+](=O)[O-])nc2O1 (stereo unspecified) | 2200 | ≥ 40000 | – | –
11 | CN(CC1CCn2cc([N+](=O)[O-])nc2O1)c1ccc(OC(F)(F)F)cc1 (stereo unspecified) | 220 | ≥ 40000 | – | –
12 | CC1(CNC(=O)c2cccc(OC(F)(F)F)c2)CCn2cc([N+](=O)[O-])nc2O1 (stereo unspecified) | 1300 | ≥ 40000 | 14 (≈ 35 µM) | remaining at 1 h, 1 µM [6]: 36%; remaining at 1 h, 1 µM [7]: 58%
13 | CN(CC1(C)CCn2cc([N+](=O)[O-])nc2O1)c1ccc(C(F)(F)F)nc1 (stereo unspecified) | 2200 | ≥ 40000 | – | –
14 | CN(CC1(C)CCn2cc([N+](=O)[O-])nc2O1)c1ccc(F)cc1 (stereo unspecified) | 480 | ≥ 40000 | – | –
15 | O=C(Nc1ccc(OC(F)(F)F)cc1)OCC1CCn2cc([N+](=O)[O-])nc2O1 (stereo unspecified) | 360 | ≥ 40000 | 4.5 (≈ 11.2 µM) | clearance at 24 h [9]: 14 mL/min/kg; bioavailability at 24 h (in vivo [10]): 100%; Cmax at 24 h (in vivo [11]): 9600 ng/mL; Vd at 24 h [12]: 1.6 L/kg; AUC(0-t) at 24 h (in vivo [14]): 35400 ng·h/mL; AUC(0-t) at 24 h [15]: 1170 ng·h/mL; half-life at 24 h [16]: 1.2 h; Tmax at 24 h (in vivo [18]): 1 h; half-life [19]: 1.6 h; C0 at 24 h [20]: 740 ng/mL
16 | CC1(CNc2ccc(Cl)cc2)CCn2cc([N+](=O)[O-])nc2O1 (stereo unspecified) | 290 | ≥ 40000 | – | –
17 | CC1(COc2ccc(F)cc2)CCn2cc([N+](=O)[O-])nc2O1 (stereo unspecified) | 450 | ≥ 40000 | – | –
18 | CC1(COC(=O)N(Cc2ccc(OC(F)(F)F)cc2)C(=O)NCc2ccc(OC(F)(F)F)cc2)CCn2cc([N+](=O)[O-])nc2O1 (stereo unspecified) | 1300 | ≥ 40000 | – | –
